Experiment [1] has as its system progesterone receptor (T47D cells). As to the kind of experiment: Antagonist assay in T47D (human breast cancer) cells (Tables 1 and 2). In kind it is cell-based. The following applies: for Efficacy (% maximal response relative to RU-486), T47D cells: antagonist activity; for IC50: concentration required to reduce the maximal response by 50%, read-out: Potency (IC50), T47D cells. The text has this:
The functional activities of the cyclocymopol analogues in the human breast cell line, T47D, were also investigated. T47D cells have proven to be a particularly useful model to investigate the molecular actions of sex steroids because they contain endogenous functional receptors for, and respond to, progestins, and their respective antagonists. […] In T47D cells, progestins induce de novo synthesis of a plasma-associated alkaline phosphatase, which has been reported to be similar, if not identical, to the alkaline phosphatase present in the normal breast and human milk. These tests were conducted according to the following illustrative example.
The assay was also run using T47D (human breast cancer) cells.

In experiment [2] the test system is human progesterone receptor altered at the Tau-1 location. Briefly: Co-transfection assay in CV-1 cells, progesterone receptor altered at Tau-1, antagonist activity. The class given is cell-based. The following applies: for Efficacy (% maximal response relative to RU-486), CV-1 cells: antagonist activity; for IC50: concentration required to reduce the maximal response by 50%, read-out: Potency (IC50), CV-1 cells. The text has this: This assay is described in further detail in U.S. Pat. Nos. 4,981,784 and 5,071,773, which are incorporated herein by reference. The co-transfection assay provides a method for identifying functional ligands (either agonists which mimic, or antagonists which inhibit, the effect of hormones) for ligand-responsive receptor proteins.
The co-transfection assay provides a mechanism to evaluate ability of a compound to function as an agonist or antagonist of the activity modulated by an intracellular receptor. The co-transfection assay mimics an in vivo system in the laboratory. In the co-transfection assay, a cloned gene for an intracellular receptor is introduced by transfection (a procedure to induce cells to take up foreign genes) into a background cell substantially devoid of endogenous intracellular receptors. This introduced gene directs the recipient cells to make the intracellular receptor protein. A second gene is also introduced (co-transfected) into the same cells in conjunction with the intracellular receptor gene. This second gene functions as a reporter for the transcription-modulating activity of the target intracellular receptor. The reporter acts as a surrogate for the products normally expressed by a gene under control of the target receptor and its natural hormone.
A preferred reporter gene is one which expresses the firefly enzyme luciferase. The co-transfection assay can detect small molecule agonists or antagonists of target intracellular receptors. Exposing the cells to an agonist ligand increases reporter activity in the transfected cells that can be conveniently measured, reflecting ligand-dependent, intracellular receptor-mediated increases in reporter transcription. To detect antagonists, the co-transfection assay is carried out in the presence of a constant concentration of an agonist known to induce a defined reporter signal. Increasing concentrations of a test antagonist will decrease the reporter signal. The co-transfection assay is therefore useful to detect both agonists and antagonists of specific intracellular receptors. It determines not only whether a compound interacts with a particular intracellular receptor, but also whether this interaction mimics (agonizes) or blocks (antagonizes) the effects of the natural regulatory molecules on target gene expression.
Co-transfected cells are exposed to a medium to which is added the potential ligand that is being evaluated. If the candidate ligand diffuses into the cell and binds to the receptor and the resulting complex functions as an agonist, it binds to the co-transfected reporter gene and initiates transcription. When that gene is one that expresses, for example, luciferase, luciferase is produced which catalyzes a light-emitting reaction with its substrate luciferin. Thus, after cell lysis and the introduction of luciferin, the amount of light produced relative to the concentration of candidate ligand used in the assay provides a measure of the potency and efficacy of the compound tested. Antagonist activity is evaluated by adding the candidate ligand and a known agonist to the co-transfected cells.
The receptor cDNA was introduced in a mammalian expression vector under the control of the Rous Sarcoma virus LTR. […] A reporter vector was also transfected, containing a firefly luciferase gene under the control of the hormone-responsive promoter. […] The level of luciferase activity was then measured in cell extracts. Light emission is directly proportional to the effectiveness of the hormone-receptor complex in activating gene expression.
A total of three replicates per concentration point were tested for each compound, and the EC50 was calculated for each positive response. Both agonist and antagonist activity for each test compound was determined in parallel. […]

Experiment [3] concerns endometrium of the uterus. Briefly: Decidualization assay in pseudopregnant mice, oil-induced uterine weight gain. In kind it is in vivo. The following applies: for Inhibition of decidualization weight gain: vs oil control; for Net Uterine Weight Gain: intraluminal, autopsy Day 7, oil alone control 334.7 +/- 41.0. On the procedure: A successful pregnancy requires not only the effective collision and fusion of egg and spermatozoon, but also the provision of a receptive and supportive uterus. The preparation of the endometrium of the uterus for implantation (i.e. decidualization) starts well before the blastocyst arrives in the uterus.
Psuedopregnant mice (i.e. mated with vasectomized males) were used to establish the assay system. […] At 16 hours of Day 4, a small volume of sesame oil (10 μl) was introduced to the lumen of the right uterine horn to serve as a decidual stimulus. The left horn was left undisturbed to serve as an internal control. Autopsies were performed on Day 7 to assess uterine wet weight gains in the stimulated versus non-stimulated uterine horns.
Each of these compounds was intraluminally administered in an appropriate dosage on Day 4 along with the sesame oil administration.

The target of experiment [4] is T1, human progesterone receptor (Homo sapiens, UniProt P06401).
T1 sequence (P06401 1-933): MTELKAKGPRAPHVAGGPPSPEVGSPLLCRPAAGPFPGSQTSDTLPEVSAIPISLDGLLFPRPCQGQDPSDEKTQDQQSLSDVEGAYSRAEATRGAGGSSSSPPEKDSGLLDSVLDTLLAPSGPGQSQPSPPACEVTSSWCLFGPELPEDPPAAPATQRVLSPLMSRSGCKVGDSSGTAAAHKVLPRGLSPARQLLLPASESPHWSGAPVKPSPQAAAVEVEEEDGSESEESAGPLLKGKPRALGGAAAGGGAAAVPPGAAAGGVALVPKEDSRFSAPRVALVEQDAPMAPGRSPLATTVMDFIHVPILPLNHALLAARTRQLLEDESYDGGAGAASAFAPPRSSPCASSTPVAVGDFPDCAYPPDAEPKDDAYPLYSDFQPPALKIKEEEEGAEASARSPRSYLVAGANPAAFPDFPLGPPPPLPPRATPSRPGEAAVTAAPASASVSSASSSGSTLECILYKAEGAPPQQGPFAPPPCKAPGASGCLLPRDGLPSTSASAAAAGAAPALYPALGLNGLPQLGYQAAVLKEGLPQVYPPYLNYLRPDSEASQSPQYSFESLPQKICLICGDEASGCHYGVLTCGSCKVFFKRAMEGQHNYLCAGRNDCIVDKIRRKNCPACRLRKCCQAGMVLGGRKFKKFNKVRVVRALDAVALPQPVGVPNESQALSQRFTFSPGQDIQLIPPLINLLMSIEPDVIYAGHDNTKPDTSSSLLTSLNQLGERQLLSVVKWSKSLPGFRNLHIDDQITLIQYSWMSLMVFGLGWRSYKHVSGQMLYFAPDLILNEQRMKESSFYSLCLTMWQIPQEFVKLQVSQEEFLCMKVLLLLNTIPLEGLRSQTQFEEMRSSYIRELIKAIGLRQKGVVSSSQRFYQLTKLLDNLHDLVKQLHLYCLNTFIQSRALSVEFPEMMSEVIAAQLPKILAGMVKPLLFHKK
As to the kind of experiment: Progesterone receptor binding (displacement of 3H-progesterone, whole cell extract of transfected CV-1 cells). Set-up: expressed in transfected cells; host or cells: CV-1 cells (calcium phosphate transfection), whole cell extract. On the procedure: These tests were conducted according to the following illustrative example.
CO2 for 40 hours prior to harvest.
After incubation, cells were harvested and washed in phosphate buffered saline. Whole cell receptor extract was prepared by homogenizing the harvested cells in Tris-HCl buffer, pH=7.4, containing 30% glycerol, 1 mM EDTA, 12 mM monothioglycerol, 1 mM PMSF, and 0.5M potassium chloride. The homogenate was incubated at 4° C. for 60 min with resuspension every 10 min. The suspension was centrifuged (105,000×g, 60 min) and the supernatant was collected and flash frozen in liquid nitrogen and stored frozen at -70° C.
To a […] final volume incubation mixture, […] of 7.5% (w/v) dextran-coated charcoal suspension in gelatin phosphate buffer was added. The mixture was vortexed and incubated at 4° C. for 10 min and then centrifuged at 3000 rpm for 10 min. The amount of bound tritiated hormone was determined by liquid scintillation spectrophotometry of an aliquot of the supernatant. […]

SMILES strings stand for the structures.

Eleven compounds from patent US5808139A (Ligand Pharmaceuticals Incorporated, priority 1994, dated 1998) can be followed below.

`C=C1CCCC(C)(C)C1Cc1cc(OC)c(Br)cc1O` (stereo in doubt) [J, (3R)-1-Debromocyclocymopol monomethyl ether]: in experiment [1], the “Efficacy (% maximal response relative to RU-486), T47D cells” value is reported as 85%. Moreover, the “Efficacy (% maximal response relative to RU-486), CV-1 cells” value in experiment [2] worked out at 95%. Also, in experiment [3] (5 mg), the “Inhibition of decidualization weight gain” value is recorded as around 91% and the “Net Uterine Weight Gain” value turned out to be 30.7 ± 16.2 mg.

`C=C1C=CCC(C)(C)C1Cc1cc(OC)c(Br)cc1OC(C)=O` (stereo not drawn) [L, 1-Methylidene-6-(2'-acetoxy-4'-bromo-5'-methoxyphenyl)methyl-5,5-dimethylcyclohex-2-ene]: in experiment [1], the “Efficacy (% maximal response relative to RU-486), T47D cells” value was 75% and the IC50 (in general, the concentration at which inhibition is half-maximal) stood at 0.2 µM. In addition, in experiment [2], the “Efficacy (% maximal response relative to RU-486), CV-1 cells” value amounted to 55% and the IC50 is 0.825 µM. The Kd (usually a measure of binding affinity in units of concentration) in experiment [4] was found to be 0.09 µM.

`C=C1C=CCC(C)(C)C1Cc1ccc([N+](=O)[O-])c(C)c1` (stereo not drawn) [M, 1-Methylidene-6-(3'-methyl-4'-nitrophenyl)methyl-5,5-dimethylcyclohex-2-ene]: in experiment [1], the “Efficacy (% maximal response relative to RU-486), T47D cells” value is 80% and the IC50 amounted to 0.35 µM. In addition, in experiment [2], the “Efficacy (% maximal response relative to RU-486), CV-1 cells” value was 90% and the IC50 turned out to be 0.875 µM. Moreover, the Kd in experiment [4] turned out to be 0.075 µM.

Turning to `CC1(C)CC=CC(=O)C1Cc1ccc([N+](=O)[O-])cc1` (stereo not drawn) [MM, 6-(4'-Nitrophenyl)methyl-5.5-dimethylcyclohex-2-en-1-one], in experiment [1], the “Efficacy (% maximal response relative to RU-486), T47D cells” value is recorded as 90% and the IC50 was determined as 0.39 µM. Besides, in experiment [2], the “Efficacy (% maximal response relative to RU-486), CV-1 cells” value amounted to 74% and the IC50 stood at 1.77 µM. For the same compound, in experiment [4], the Kd was determined as 10 µM.

Regarding `C=C1CC[C@@H](Br)C(C)(C)[C@@H]1Cc1cc(OC)c(C=O)cc1O` [NN, (3R)-4'-Formylcyclocymopol monomethyl ether], in experiment [1], the “Efficacy (% maximal response relative to RU-486), T47D cells” value was determined as 83% and the IC50 came to 1.8 µM. In experiment [2], the “Efficacy (% maximal response relative to RU-486), CV-1 cells” value came out at 31% and the 50% inhibitory concentration (IC50) came out at 2.1 µM. Also, the Kd in experiment [4] turned out to be 0.409 µM.

On to `C=C1CCCC(C)(C)C1Cc1ccc(Br)cc1` (stereo not drawn) [O, 1-Methylidene-2-(4'-bromophenyl)methyl-3,3-dimethylcyclohexane], for which, in experiment [1], the “Efficacy (% maximal response relative to RU-486), T47D cells” value was 85% and the IC50 turned out to be 0.85 µM. Further, in experiment [2], the “Efficacy (% maximal response relative to RU-486), CV-1 cells” value worked out at 90% and the IC50 was 1 µM. Besides, the Kd in experiment [4] amounted to 0.445 µM.

Turning to `C=C1CCC(C)(C)C1Cc1cc(OC)c(Br)cc1O` (stereo not drawn) [P, 1-Methylidene-2-(2'-hydroxy-4'-bromo-5'-methoxyphenyl)methyl-3,3-dimethylcyclo-pentane], in experiment [1], the “Efficacy (% maximal response relative to RU-486), T47D cells” value came out at 60% and the IC50 stood at 0.275 µM. In experiment [2], the “Efficacy (% maximal response relative to RU-486), CV-1 cells” value worked out at 100% and the IC50 turned out to be 1.2 µM. Besides, in experiment [4], the Kd worked out at 0.44 µM.

With `C=C1CCCCC1Cc1ccc([N+](=O)[O-])cc1` (stereo not drawn) [Q, 1-Methylidene-2-(4'-nitrophenyl)methylcyclohexane], in experiment [1], the “Efficacy (% maximal response relative to RU-486), T47D cells” value is listed as 65% and the IC50 was found to be 0.225 µM. Moreover, in experiment [2], the “Efficacy (% maximal response relative to RU-486), CV-1 cells” value is on record as 95% and the IC50 worked out at 1.2 µM. The Kd in experiment [4] was 0.245 µM.

As to `C=C1CC[C@@H](Br)C(C)(C)[C@@H]1Cc1cc(OC)c(Br)cc1OC(=O)OC` [T, (3R)-Cyclocymopol monomethyl ether, methyl carbonate], in experiment [1], the “Efficacy (% maximal response relative to RU-486), T47D cells” value was 90% and the IC50 is 0.3 µM. In experiment [2], the “Efficacy (% maximal response relative to RU-486), CV-1 cells” value is 90% and the IC50 amounted to 1.57 µM. For the same compound, the Kd in experiment [4] was 0.185 µM.

In the case of `C=C1CC[C@@H](Br)C(C)(C)[C@@H]1Cc1cc(OC)c(I)cc1O` [V, (3R)-4'-Iodocyclocymopol monomethyl ether], in experiment [1], the “Efficacy (% maximal response relative to RU-486), T47D cells” value was 85% and the 50% inhibitory concentration (IC50) was 0.325 µM. Further, in experiment [2], the “Efficacy (% maximal response relative to RU-486), CV-1 cells” value amounted to 95% and the concentration for half-maximal inhibition (IC50) came to 1.8 µM. The Kd in experiment [4] came out at 0.095 µM.

With `CN(C)c1ccc([C@H]2C[C@]3(C)[C@@H](CC[C@]3(O)CCCO)[C@@H]3CCC4=CC(=O)CCC4=C32)cc1` [ZK299, reference compound], in experiment [3] (0.1 mg), the “Inhibition of decidualization weight gain” value was “approximately 88%” and the “Net Uterine Weight Gain” value is 41.1 ± 21.0 mg.
